Source: US20240124409A1, “GUAIANOLIDE SESQUITERPENE LACTONE DERIVATIVES AND PHARMACEUTICAL USE THEREOF” (NANJING UNIVERSITY OF CHINESE MEDICINE, priority 2021, published 2024)
pIC50: −log10 of the molar value.

Assays:
NLRP3 inflammasome = biological target: T1, NLRP3 inflammasome (Mus musculus, UniProt Q8R4B8); assay: Inhibition of LPS and ATP induced NLRP3 inflammasome activation in BMDMs (IL-1β level); type: cell-based, C57BL/6 mice; settings: read-out: IC50, inhibitory effect on activation of NLRP3 inflammasome
T1 construct: endogenous in cells; host or cells: primary bone marrow-derived macrophages (BMDMs) from female C57BL/6 mice, differentiated with rmM-CSF
Excerpt: NLRP3 is an important pattern recognition receptor, that can form the NLRP3 inflammasome through the adaptor ASC and pro-caspase-1. After activation, the NLRP3 inflammasome can mediate the activation of caspase-1, thus promoting the maturation and secretion of IL-1β. In order to determine whether the prepared guaianolide sesquiterpene lactone Compounds 1-8 can inhibit the activation of the NLRP3 inflammasome, we used LPS and ATP to induce the activation of the NLRP3 inflammasome, and observed the effects of Compounds 1-8 on the IL-1β level caused by NLRP3 inflammasome activation.
C57BL/6 mice were sacrificed by cervical dislocation, and then soaked in 75% alcohol for 5-10 min. Subsequently, two hind legs of the mice were cut off with scissors. Next, the meat was removed, and the leg bones were left, which were then washed with PBS for three times. After severing the bone at both ends, a sterile syringe filled with cold serum-free RPMI 1640 medium was used to flush the bone marrow into a 15 mL centrifuge tube. Subsequently, the bone marrow was centrifuged at 1500 rpm for 5 min, and the supernatant was discarded. The residue was resuspended with 1 mL of erythrocyte lysate, blown repeatedly, and then stood for 7 min to lyse erythrocytes. After centrifugation at 1500 rpm for 5 min, the supernatant was discarded. The residue was resuspended with the RPMI 1640 medium containing 100 ng/ml of rmM-CSF, and then transferred to a 6-well culture plate for culture.
The BMDMs were seeded on 6-well cell culture plates and then treated with 100 ng/ml ultrapure LPS for 3 h. […] Subsequently, the cells were stimulated with 5 mM ATP for 45 min. The supernatants were collected into 1.5 mL EP tubes for subsequent detection of IL-1β level.

mouse sepsis model = assay: Mouse sepsis model (LPS), Q-PCR of inflammatory factors; type: in vivo, C57BL/6 mice; design: key: relative mRNA by 2^−ΔΔCt, normalized to Gapdh
Excerpt: The mice were randomly divided into 8 groups, one of which was randomly selected as the normal group, and the other 7 groups were the model group, the parent drug 1 (0.4 and 4 μmol/kg), the hydrochloride 22 (4 μmol/kg), the fumarate 23 (0.4 and 4 μmol/kg) and dexamethasone (Dex, 12 μmol/kg) groups, respectively, with 6 mice in each group. 5 days before model establishment, the parent drug 1 (0.4 and 4 μmol/kg), the hydrochloride 22 (4 μmol/kg), the fumarate 23 (0.4 and 4 μmol/kg) and Dex (12 μmol/kg) were administered intragastrically. The mice in the normal group and model group were administered intragastrically the same volume of the solvent 0.5% CMC-Na. LPS (10 mg/kg) was injected intraperitoneally 1 hour after administration on the last day to establish a mouse sepsis model.
At 6 h after intraperitoneal injection of LPS, the mice were sacrificed by cervical dislocation, and the abdominal cavity was opened. The lungs, livers and kidneys were taken out, and rinsed twice with pre-cooled PBS. The lung tissues, liver left lobe tissues and kidney tissues of the mice were cut, and fixed with 4% paraformaldehyde for 24-48 h. The remaining tissues were frozen at −70° Cfor subsequent use.
20 mg of kidney, lung and liver tissues were accurately weighed, rinsed with pre-cooled PBS solution, cut into small pieces by ophthalmic surgical scissors, and put into a glass homogenizer, into which was added 1 mL Trizol reagent for grinding to prepare tissue homogenate. Subsequently, the homogenate was transferred into a 1.5 mL EP tube without RNase and lysed on ice for 10 min. 200 μL chloroform was added, and the mixture was shaken violently, stood on ice for 3-5 min, and centrifuged at 12000 rpm and 4° C. for 15 min. The supernatant was aspirated carefully into a new 1.5 mL EP tube without RNase, into which was added the same volume of pre-cooled isopropanol, stood on an ice bath for 30 min, centrifuged at 12000 rpm and 4° C. for 10 min, and the supernatant was discarded. 75% ethanol-DEPC solution was added to wash the precipitate, and the total RNA was obtained by inversion and air drying on flat paper. Subsequently, 10 μL of DEPC treated water was added for dissolution. 1 μL of the total RNA solution was taken, and diluted to 100 times, the OD values of which at 260 nm and 280 nm were measured with a full wavelength microplate reader. If the ratio of OD260/OD280 is between 1.8 and 2.0, it is said that the extracted RNA has a high purity, i.e., it can be used in subsequent experiments.
Subsequent experiments were carried out with 20 μL of a reverse transcription reaction system according to the method described in the kit instructions:
Subsequent experiments were carried out with 20 μL of a reaction system according to the method described in the kit instructions:
The above reagents were added into a micro-reaction tube, sealed with a sealing membrane, and placed in a Q-PCR instrument. The parameters were set according to the following reaction conditions to carry out the amplification experiment. The reaction conditions were as follows:
The threshold cycle (Ct) value of each group was recorded. Calculating and analyzing were carried out by the 2^−ΔΔCt method (the expression level of the control gene Gapdh was set to 1 to correct the expression level of the target gene).

[1] = tested on: mouse acute lung injury model; assay: Mouse acute lung injury model (LPS), ELISA; type: in vivo, C57BL/6 mice; settings: title: serum (text b290: lung tissues)
Description: In addition to the normal group injected intragastrically with PBS, other mice were injected intraperitoneally with LPS (7.5 mg/kg) to establish acute lung injury models. Three days before model establishment, the parent drug 1 (0.4 and 4 μmol/kg), the hydrochloride 22 (0.4 and 4 μmol/kg), the fumarate 23 (0.4 and 4 μmol/kg) and the positive drug Dex (12 μmol/kg) were administered intragastrically in advance, and LPS (7.5 mg/kg) was injected intraperitoneally half an hour after administration on the third day.
abdominal cavity was opened. The lungs were taken out, and rinsed twice with pre-cooled PBS. […] The remaining tissues were frozen at −70° C. for subsequent use.
20 mg of lung tissues were accurately weighed, rinsed with pre-cooled PBS solution, cut into small pieces by ophthalmic surgical scissors, and put into a glass homogenizer, into which was added 180 μL PBS (containing 1 mM PMSF). The mixture was homogenized at 60 HZ for 180 s, and centrifuged at 3000 rpm/min at 4° C. for 20 min. 1 μL supernatant was taken, the protein concentration of which was measured with Nanodrop and leveled, and could be used for subsequent experiments.

[2] = Table 12, title 'in lung' (text b281: liver), 0.4 μmol/kg i.g.
[3] = Table 12, title 'in lung' (text b281: liver), 4 μmol/kg i.g.

T1 sequence (Q8R4B8 whole entry): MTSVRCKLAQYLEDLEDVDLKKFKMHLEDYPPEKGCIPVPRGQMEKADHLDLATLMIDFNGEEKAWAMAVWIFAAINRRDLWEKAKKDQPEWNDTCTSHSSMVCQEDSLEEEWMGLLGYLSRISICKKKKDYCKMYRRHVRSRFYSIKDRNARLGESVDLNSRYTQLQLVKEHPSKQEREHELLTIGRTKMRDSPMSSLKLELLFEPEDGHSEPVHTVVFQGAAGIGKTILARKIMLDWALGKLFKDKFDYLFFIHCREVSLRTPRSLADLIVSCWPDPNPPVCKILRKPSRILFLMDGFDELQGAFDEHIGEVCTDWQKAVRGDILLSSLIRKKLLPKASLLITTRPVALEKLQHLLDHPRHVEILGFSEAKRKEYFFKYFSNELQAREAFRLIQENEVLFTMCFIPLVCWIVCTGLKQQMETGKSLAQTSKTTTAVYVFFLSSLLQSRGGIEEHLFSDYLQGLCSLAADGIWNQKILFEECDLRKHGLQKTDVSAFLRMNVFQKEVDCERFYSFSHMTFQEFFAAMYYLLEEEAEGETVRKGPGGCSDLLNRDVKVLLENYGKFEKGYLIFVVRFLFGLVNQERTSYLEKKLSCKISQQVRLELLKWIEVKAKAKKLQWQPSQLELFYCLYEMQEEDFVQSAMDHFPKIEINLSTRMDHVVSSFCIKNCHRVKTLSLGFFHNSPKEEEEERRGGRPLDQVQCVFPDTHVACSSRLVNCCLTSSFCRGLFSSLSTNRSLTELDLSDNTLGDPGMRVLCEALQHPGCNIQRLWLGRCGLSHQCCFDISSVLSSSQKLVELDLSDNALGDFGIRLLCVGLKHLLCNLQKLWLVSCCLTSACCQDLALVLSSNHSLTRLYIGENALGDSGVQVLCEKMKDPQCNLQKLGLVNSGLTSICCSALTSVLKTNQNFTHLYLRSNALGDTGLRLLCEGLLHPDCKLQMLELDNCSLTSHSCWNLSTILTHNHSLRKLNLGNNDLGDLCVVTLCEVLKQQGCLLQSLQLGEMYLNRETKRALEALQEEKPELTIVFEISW

| SMILES | pIC50 (NLRP3 inflammasome) | Il1 mRNA expression (mouse sepsis model; [2]) | Il6 mRNA expression (mouse sepsis model; [2]) | Tnf mRNA expression (mouse sepsis model; [2]) | Il1 mRNA expression (mouse sepsis model; [3]) | Il6 mRNA expression (mouse sepsis model; [3]) | Tnf mRNA expression (mouse sepsis model; [3]) | Il1 mRNA expression (mouse sepsis model; kidney, 0.4 μmol/kg i.g.) | Il6 mRNA expression (mouse sepsis model; kidney, 0.4 μmol/kg i.g.) | Tnf mRNA expression (mouse sepsis model; kidney, 0.4 μmol/kg i.g.) | Il1 mRNA expression (mouse sepsis model; kidney, 4 μmol/kg i.g.) | Il6 mRNA expression (mouse sepsis model; kidney, 4 μmol/kg i.g.) | Tnf mRNA expression (mouse sepsis model; kidney, 4 μmol/kg i.g.) | Il1 mRNA expression (mouse sepsis model; lung, 4 μmol/kg i.g.) | Il6 mRNA expression (mouse sepsis model; lung, 4 μmol/kg i.g.) | Tnf mRNA expression (mouse sepsis model; lung, 4 μmol/kg i.g.) | IL-1β ([1]; 0.4 μmol/kg) [pg/mL] | IL-6 ([1]; 0.4 μmol/kg) [pg/mL] | IL-1β ([1]; 4 μmol/kg) [pg/mL] | IL-6 ([1]; 4 μmol/kg) [pg/mL] | also measured |
| --- | --- | --- | --- | --- | --- | --- | --- | --- | --- | --- | --- | --- | --- | --- | --- | --- | --- | --- | --- | --- | --- |
| C=C1C(=O)O[C@@H]2[C@@H]3[C@]4(CC[C@@]3(C)O)C[C@]4(C)CC[C@@H]12 [Compound 1] | > 7.40 | 11.24 ± 2.98 | 8.86 ± 3.11 | 8.75 ± 2.25 | 4.82 ± 0.58 | 5.20 ± 0.87 | 7.09 ± 0.99 | 7.01 ± 0.33 | 7.55 ± 2.08 | 7.17 ± 1.22 | 3.05 ± 0.58 | 3.11 ± 0.29 | 6.59 ± 0.18 | 7.89 ± 1.44 | 11.67 ± 1.84 | 7.99 ± 1.36 | 1824.88 ± 32.73 | 2760.57 ± 288.02 | 945.66 ± 36.71 | 1314.91 ± 231.08 | Il1 mRNA expression (mouse sepsis model; lung, 0.4 μmol/kg i.g.): 15.29 ± 0.88; Il6 mRNA expression (mouse sepsis model; lung, 0.4 μmol/kg i.g.): 19.17 ± 0.51; Tnf mRNA expression (mouse sepsis model; lung, 0.4 μmol/kg i.g.): 8.58 ± 0.85 |
| CN(C)C[C@@H]1C(=O)O[C@H]2[C@H]1CC[C@@]1(C)C[C@]13CC[C@@](C)(O)[C@H]23 [Compound 22] | 7.10 to 7.40 |  |  |  | 3.07 ± 0.29 | 3.93 ± 0.90 | 5.71 ± 0.61 |  |  |  | 2.76 ± 0.59 | 2.43 ± 0.64 | 6.20 ± 0.60 | 5.22 ± 0.90 | 7.16 ± 0.71 | 6.52 ± 0.29 | 1570.02 ± 62.95 | 2348.32 ± 202.75 | 708.74 ± 38.40 | 1172.00 ± 240.50 |  |
| CN(C)C[C@@H]1C(=O)O[C@H]2[C@H]1CC[C@@]1(C)C[C@]13CC[C@@](C)(O)[C@H]23 [Compound 23] | 7.10 to 7.40 | 10.46 ± 1.55 | 9.13 ± 0.80 | 7.63 ± 1.97 | 4.36 ± 0.94 | 4.97 ± 0.77 | 7.10 ± 1.09 | 6.56 ± 0.88 | 6.05 ± 0.19 | 6.70 ± 0.80 | 2.82 ± 0.33 | 2.70 ± 0.52 | 6.04 ± 1.62 | 6.79 ± 0.72 | 9.10 ± 1.20 | 8.67 ± 1.51 | 1623.55 ± 32.64 | 2585.26 ± 273.50 | 888.28 ± 35.20 | 1288.32 ± 123.80 | Il1 mRNA expression (mouse sepsis model; lung, 0.4 μmol/kg i.g.): 13.30 ± 0.88; Il6 mRNA expression (mouse sepsis model; lung, 0.4 μmol/kg i.g.): 18.40 ± 3.16; Tnf mRNA expression (mouse sepsis model; lung, 0.4 μmol/kg i.g.): 8.79 ± 1.18 |
| C=C1C(=O)O[C@@H]2[C@H]3C(C)=CC[C@@]34O[C@@]4(C)CC[C@@H]12 [arglabin, reference compound] | > 7.40 |  |  |  |  |  |  |  |  |  |  |  |  |  |  |  |  |  |  |  |  |
